Experiments:
[1] = target: T1, Recombinant human liver GK1 (GST-GK) (Homo sapiens, UniProt P35557); experiment: Glucokinase in vitro assay (G6PDH-coupled, NADH at OD340); format: biochemical; details: 25° C., 5 mM D-glucose, 10% DMSO, GST-GK
T1 construct: made in house; host or cells: E. coli
T1 sequence (P35557 1-466 isoform P35557-2): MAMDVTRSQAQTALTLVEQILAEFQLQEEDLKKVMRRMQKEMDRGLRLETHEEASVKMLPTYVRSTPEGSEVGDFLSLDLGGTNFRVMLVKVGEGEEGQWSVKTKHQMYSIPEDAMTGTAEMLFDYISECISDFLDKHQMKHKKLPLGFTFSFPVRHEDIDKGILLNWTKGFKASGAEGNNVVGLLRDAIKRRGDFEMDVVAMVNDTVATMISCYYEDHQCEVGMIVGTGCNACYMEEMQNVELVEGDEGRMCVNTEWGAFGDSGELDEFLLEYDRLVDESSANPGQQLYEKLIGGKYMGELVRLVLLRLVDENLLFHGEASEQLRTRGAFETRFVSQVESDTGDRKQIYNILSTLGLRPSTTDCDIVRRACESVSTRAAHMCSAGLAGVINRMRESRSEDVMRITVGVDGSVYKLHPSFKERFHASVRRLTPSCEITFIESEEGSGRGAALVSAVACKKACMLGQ
Experimental: Glucokinase In Vitro Assay Protocol: Glucokinase (GK) was assayed by coupling the production of glucose-6-phosphate to the generation of NADH with glucose-6-phosphate dehydrogenase (G6PDH, 0.75-1 kunits/mg; Boehringer Mannheim, Indianapolis, Ind.) from Leuconostoc mesenteroides as the coupling enzyme (Scheme 2).
Recombinant human liver GK1 was expressed in E. coli as a glutathione S-transferase fusion protein (GST-GK) [Liang et al, 1995] and was purified by chromatography over a glutathione-Sepharose 4B affinity column using the procedure provided by the manufacturer (Amersham Pharmacia Biotech, Piscataway, N.J.).
The assay was conducted at 25° C. in a flat bottom 96-well tissue culture plate from Costar (Cambridge, Mass.) with a final incubation volume of 120 μL. The incubation reaction contained the following: 25 mM Hepes buffer (pH 7.1), 25 mM KCl, 5 mM D-glucose, 1 mM ATP, 1.8 mM NAD, 2 mM MgCl2, 1 μM sorbitol-6-phosphate, 1 mM dithiothreitol, test drug or 10% DMSO, 1.8 unit/ml G6PDH, and GK (see below). All organic reagents were >98% pure and were from Boehringer Mannheim with the exceptions of D-glucose and Hepes which were from Sigma Chemical Co, St Louis, Mo. Test compounds were dissolved in DMSO and were added to the incubation reaction minus GST-GK in a volume of 12 μL to yield a final DMSO concentration of 10%. This mix was pre-incubated in the temperature controlled chamber of a SPECTRAmax 250 microplate spectrophotometer (Molecular Devices Corporation, Sunnyvale, Calif.) for 10 minutes to allow temperature equilibrium and then the reaction was started by the addition of 20 μL GST-GK.
After addition of enzyme, the increase in optical density (OD) at 340 nm was monitored over a 10 minute incubation period as a measure of GK activity. Sufficient GST-GK was added to produce an increase in OD340 of 0.08 to 0.1 units over the 10 minute incubation period in wells containing 10% DMSO but no test compound. Preliminary experiments established that the GK reaction was linear over this period of time even in the presence of activators that produced a 5-fold increase in GK activity. The GK activity in control wells was compared with the activity in wells containing test GK activators, and the concentration of activator that produced a 50% increase in the activity of GK, i.e., the SC1.5, was calculated.

[2] = test system: Diet-Induced Obese (DIO) C57BL/6J mice; experiment: Glucokinase activator in vivo screen, blood glucose in DIO mice; details: Mus musculus; 2 hours post 25 mg/kg oral dose in DIO mice, vs control; read-out: % gluc @ 2 H (% glucose lowering vs control)
Experimental: Glucokinase Activator in vivo Screen Protocol in Lean and Diet Induced Obese Mice: Lean or Diet-Induced Obese (DIO) C57BL/6J mice were orally dosed via gavage with Glucokinase (GK) activator (50 mg/kg body weight for lean mice, 25 mg/kg body weight for DIO mice) following a two hour fasting period. Blood glucose determinations were made four times during the six hour post-dose study period.
C57Bl/6J mice were obtained from Jackson Laboratory (Bar Harbor, Me.) and were maintained in a light-dark cycle with lights on from 0600-1800 hr. For studies in lean mice, the mice were received at age six weeks and given ad libitum access to control diet (LabDiet 5001 chow, PMI Nutrition, Brentwood, Mo.), and were at least age 11 weeks at the time of study. For studies in the DIO model, the mice were received at age five weeks and given ad libitum access to Bio-Serv F3282 High Fat Diet (Frenchtown, N.J.), and were at least age 16 weeks at the time of study. The experiments were conducted during the light phase of the light-dark cycle. Mice (n=6) are weighed and fasted for a two hour period prior to oral treatment. GK activators are formulated in Gelucire vehicle (Ethanol:Gelucire44/14:PEG400q.s. 4:66:30 v/w/v. For studies in lean mice, the mice were dosed orally with 5.0 μL per gram of body weight with 5 ml/kg×10.0 mg/ml formulation to equal a 50 mg/kg dose. For studies in DIO mice, the mice were dosed orally with 5.0 μL per gram of body weight with […] formulation to equal a 25 mg/kg dose. Immediately prior to dosing, a pre-dose (time zero) blood glucose reading was acquired by snipping off a small portion of the animal's tail (˜1 mm) and collecting 15 μL blood into a heparinized capillary tube for analysis. Following GK activator administration, additional blood glucose readings were taken at 2, 4 and 6 hours post dose from the same tail wound. Results were interpreted by comparing the mean blood glucose values of six vehicle treated mice with six GK activator treated mice over the six hour study duration.

For `O=C(Nc1ccn(CCCO)n1)[C@H](CC1CCCC1)c1cccc(C(F)(F)F)c1` [Example 85, 3-Cyclopentyl-N-[1-(3-hydroxy-propyl)-1H-pyrazol-3-yl]-2(R)-(3-trifluoromethyl-phenyl)-propionamide], the “SC1.5 (concentration of activator that produced a 50% increase in the activity of GK)” value [1] was 0.779 µM and the change in vivo at 25 mg/kg [2] was -20.5%.

From patent publication US7935699B2, “Pyrazole glucokinase activators” (Hoffmann-La Roche Inc., priority 2006, dated 2011)
